US12590075B2, “Refining method” (NGK Insulators, Ltd., priority 2020, dated 2026)

Experiment: Dissolution time / dissolution rate of the raw material in a solvent (stereoscopic microscope, heating stage)
Type: physicochemical
Settings: heating stage 50±5° C., order of solvents; for Dissolution rate of the raw material (Arranged in order from the fastest to the slowest): 25 mg compound in 2 mL solvent
Protocol: The dissolution time of the raw material of febuxostat in a solvent was examined as described below. […] First, a heating stage ([…], Mettler) was installed in a stereoscopic microscope (SZX16, Olympus Corporation), and the surface temperature of the heating stage was maintained at 50±5° C. 25 mg of febuxostat (product code […], Tokyo Chemical Industry Co., Ltd.) was weighed into a flat laboratory dish (φ32 mm×16 mm), and 2 mL of the solvent was weighed and added to the laboratory dish, which was then immediately covered with a glass lid. The laboratory dish was placed on the heating stage. […] As a result, the dissolution time was ethanol<2-propanol<acetonitrile (in other words, the dissolution rate was ethanol>2-propanol>acetonitrile). […] The dissolution times of the raw materials of loxoprofen and diclofenac in the solvents were also examined in the same manner as febuxostat.

Row | SMILES | Dissolution rate of the raw material (Arranged in order from the fastest to the slowest) | Dissolution rate of the raw material (Arranged in order from the fastest to the slowest) (listed as febuxostat) | dissolution time (25 mg in 2 mL solvent, time until no undissolved material observed)
1 | Cc1nc(-c2ccc(OCC(C)C)c(C#N)c2)sc1C(=O)O [Febuxostat, febuxostat] | Ethanol, 2-propanol, Acetonitrile | ethanol>2-propanol>acetonitrile | ethanol<2-propanol<acetonitrile
2 | O=C(O)Cc1ccccc1Nc1c(Cl)cccc1Cl [Diclofenac, diclofenac] | Ethanol, Ethanol/IPA^※1 |  | 
3 | CC(C(=O)O)c1ccc(CC2CCCC2=O)cc1 (centres unmarked) [Loxoprofen, loxoprofen] | Ethanol, 2-propanol |  | 
